Measurements from PubChem BioAssay (NCI).
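Assay format: 96-well plates, 48-hour exposure. Here, GI50 denotes the concentration required for 50% inhibition of growth. TGI is the concentration that stops growth completely.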 Where a SMILES comes first, the peptide text is derived from it. [ ]: non-standard residue; d: D form.

Assays:
Assay in all cases: NCI tumour cell line growth inhibition, 48 h
A549 NSCLC = test system: A549 NSCLC
ACHN renal = test system: ACHN renal
HCT-15 colon = test system: HCT-15 colon
KM12 colon = test system: KM12 colon
MALME-3M melanoma = test system: MALME-3M melanoma
OVCAR-5 ovarian = test system: OVCAR-5 ovarian
SF-268 CNS = test system: SF-268 CNS
SK-MEL-2 melanoma = test system: SK-MEL-2 melanoma
TK-10 renal = test system: TK-10 renal
UO-31 renal = test system: UO-31 renal

Row | SMILES | TGI (A549 NSCLC) [µM] | TGI (ACHN renal) [µM] | TGI (HCT-15 colon) [µM] | TGI (KM12 colon) [µM] | TGI (MALME-3M melanoma) [µM] | TGI (OVCAR-5 ovarian) [µM] | TGI (SF-268 CNS) [µM] | TGI (SK-MEL-2 melanoma) [µM] | TGI (TK-10 renal) [µM] | TGI (UO-31 renal) [µM] | GI50 (ACHN renal) [µM] | GI50 (HCT-15 colon) [µM] | GI50 (KM12 colon) [µM] | GI50 (MALME-3M melanoma) [µM] | GI50 (OVCAR-5 ovarian) [µM] | GI50 (SF-268 CNS) [µM] | GI50 (SK-MEL-2 melanoma) [µM] | GI50 (TK-10 renal) [µM] | GI50 (UO-31 renal) [µM]
1 | Cc1cnc2c(c1)C(=O)N(c1ccc(Oc3ccccc3)cc1)S2(=O)=O | > 100 | > 100 | > 100 | > 100 | > 100 | > 100 | > 100 | > 100 | > 100 | > 100 |  |  |  |  |  |  |  |  | 
2 | C[Si](C)(C)OC1(C#N)c2ccccc2CCCC12CCCC2 (configuration not stated) | > 100 | > 100 | > 100 | > 100 | > 100 | > 100 | > 100 | 45.7 | > 100 | > 100 |  |  |  |  |  |  |  |  | 
3 | Cc1ccc2sc3c(NCCCN)nc4ccccc4c3c(=O)c2c1 |  | 3.09 | 3.15 | 3.51 | 3.3 | 3.27 | 3.45 | 4.66 | 3.52 | 2.98 | 1.71 | 1.61 | 1.9 | 1.74 | 1.71 | 1.74 | 2.18 | 1.81 | 1.51
4 | CCCN=C1NC(C)=CSC(Nc2ccccc2)=C1C#N | > 100 | > 100 | > 100 | > 100 | > 100 | > 100 | > 100 | > 100 | > 100 | > 100 |  |  |  |  |  |  |  |  | 
5 | CC(=O)/C=C(/C)[O-].CC(=O)/C=C(/C)[O-].CC(=O)[CH-]C(C)=O.CC(=O)[CH-]C(C)=O.[Zr+4] |  | > 100 |  | > 100 | 32.5 | > 100 | > 100 | > 100 | > 100 | > 100 | > 100 |  | > 100 | 12.7 | > 100 | > 100 | > 100 | > 100 | > 100
6 | CC(C)OC1=C(CC2(C)OCCO2)C(=O)C12OCCO2 | > 100 | > 100 | > 100 | > 100 |  | > 100 | > 100 | > 100 | > 100 | > 100 |  |  |  |  |  |  |  |  | 
7 | c1ccc2c(c1)nnn2C1CCCCO1 (configuration not stated) | > 100 | > 100 | > 100 | > 100 | > 100 | > 100 | > 100 | > 100 | > 100 | > 100 |  |  |  |  |  |  |  |  | 
8 | CC(C)C[C@H](NC(=O)[C@H](CC(C)C)NC(=O)[C@@H](Cc1c[nH]c2ccccc12)NC(=O)[C@H](Cc1ccccc1)NC(=O)[C@@H](Cc1c[nH]c2ccccc12)NC(=O)[C@H](CCC(N)=O)NC(=O)[C@@H](CCC(N)=O)NC(=O)[C@@H]1CCCN1C(=O)[C@@H](CCCCN)NC(=O)[C@H]1CCCN1C(=O)[C@H](N)CCCN=C(N)N)C(N)=O (H-[dR][dP][dK]P[dQ]Q[dW]F[dW]LL-NH2) | > 100 |  | > 100 | > 100 | > 31.6 | > 100 | > 100 | > 100 |  | > 100 |  |  |  |  |  |  |  |  | 
9 | CC1(C)CCC2=C(O1)c1ccccc1C(=Nc1ccc([N+](=O)[O-])cc1)C2=O | 30 | 25.5 | > 100 | 28.2 | 29.7 | 28.2 | > 100 | 32.8 | 32.6 | 22.4 |  |  |  |  | 14.5 |  |  |  | 
10 | [N-]=[N+]=C(C(=O)CN1CCCC1=O)S(=O)(=O)c1ccccc1 | > 100 | > 100 | > 100 | > 100 | > 100 | > 100 | > 100 | > 100 | > 100 | > 100 |  |  |  |  |  |  |  |  | 
11 | O=C1C(Cl)N(c2ccc([N+](=O)[O-])cc2)C1c1c[nH]c2ccccc12 (configuration not stated) | > 100 |  |  | > 100 | > 100 | > 100 | > 100 | > 100 | > 100 | > 100 |  |  |  |  |  |  |  |  | 
12 | CCOP(=O)(OCC)C(Nc1ccc(Cl)cc1)c1ccc(F)cc1 (configuration not stated) | > 100 | 97.2 | > 100 | > 100 | 42.3 |  | 61.2 | 35.8 | > 100 | 59.9 |  |  |  |  |  |  |  |  | 
13 | CCN(CC)/N=C\c1c2ccccc2cc2ccccc12 | > 100 | > 100 | > 100 | > 100 | > 100 | > 100 | > 100 | 61.9 | > 100 | > 100 |  |  |  |  |  |  |  |  | 
14 | NS(=O)(=O)c1nnc(NS(=O)(=O)c2cccc3cccnc23)s1 | > 100 | > 100 | > 100 | > 100 |  | > 100 | > 100 | > 100 | > 100 | > 100 |  |  |  |  |  |  |  |  | 
15 | COC(=O)/C1=C/C=C\C[C@@]2(C)CC(c3ccoc3)OC(=O)[C@@H]2CC[C@H]1C (some centres not stated) | > 25 | > 25 | > 25 | > 25 | > 25 | > 25 |  | > 25 | > 25 | > 25 |  |  |  |  |  |  |  |  | 
16 | [N-]=[N+]=Nc1cc(=O)[nH]c2ccccc12 | > 100 | > 100 |  | > 100 | > 100 | > 100 | > 100 | > 100 | > 100 | > 100 |  |  |  |  |  |  |  |  | 
17 | Cc1nc(N)c(N2CCN(S(=O)(=O)N(Cc3ccccc3)Cc3ccccc3)CC2)c(=O)[nH]1 | > 100 | 85.1 | > 100 | > 100 | 56.6 | 73.5 | 73.5 | > 100 | 59 | > 100 |  |  |  |  |  |  |  |  | 
18 | O=c1c(O)c(-c2ccccc2)oc2c(CP(=O)(O)O)cccc12 | > 100 |  | > 100 |  | > 100 | > 100 |  | > 100 | > 100 |  |  |  |  |  |  |  |  |  | 
19 | N=c1ncn(C/C=C/c2ccccc2)c2nc[nH]c12 | > 100 | > 100 | > 100 | > 100 | > 100 | > 100 | > 100 | > 100 | > 100 | > 100 |  |  |  |  |  |  |  |  | 
